Like-named read-outs stand apart in the source and are kept apart here.
What was measured:
Assay in all cases: Test C pre-/postemergence greenhouse test, plant response rating 0-100
Assay type in all cases: in vivo
[1] = system: blackgrass (Alopecurus myosuroides); details: Alopecurus myosuroides; for pest or weed control at 62 g/ha: 62 g ai/ha; for pest or weed control at 125 g/ha: 125 g ai/ha; for pest or weed control at 250 g/ha: 250 g ai/ha; for pest or weed control at 500 g/ha: 500 g ai/ha
Method in brief: (§1)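 Seeds were sown in a loam soil–sand blend and sprayed preemergence with test chemicals in a non-phytotoxic solvent mixture containing surfactant; postemergence plants in peat/vermiculite medium were treated at 2–18 cm (1- to 4-leaf stage). After 13 to 15 days in the greenhouse, injury was rated visually against untreated controls.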

[2] = system: morningglory (Ipomoea coccinea); details: Ipomoea; for pest or weed control at 62 g/ha: 62 g ai/ha; for pest or weed control at 125 g/ha: 125 g ai/ha; for pest or weed control at 250 g/ha: 250 g ai/ha; for pest or weed control at 500 g/ha: 500 g ai/ha
Method in brief: as §1

[3] = system: corn (Zea mays); details: Zea mays; for Corn plant response rating (crop injury, 0 = no effect, 100 = complete kill) at 250 g/ha: 250 g ai/ha; for Corn plant response rating (crop injury, 0 = no effect, 100 = complete kill) at 500 g/ha: 500 g ai/ha
Method in brief: as §1

[4] = system: pigweed (Amaranthus retroflexus); details: Amaranthus retroflexus; for pest or weed control at 62 g/ha: 62 g ai/ha; for pest or weed control at 125 g/ha: 125 g ai/ha; for pest or weed control at 250 g/ha: 250 g ai/ha; for pest or weed control at 500 g/ha: 500 g ai/ha
Method in brief: as §1

[5] = system: soybean (Glycine max); details: Glycine max; for plant injury at 62 g/ha: 62 g ai/ha; for plant injury at 125 g/ha: 125 g ai/ha; for plant injury at 250 g/ha: 250 g ai/ha; for plant injury at 500 g/ha: 500 g ai/ha
Method in brief: as §1

[6] = system: lambsquarters (Chenopodium album); details: Chenopodium album; for pest or weed control at 62 g/ha: 62 g ai/ha; for pest or weed control at 125 g/ha: 125 g ai/ha
Method in brief: as §1

[7] = post-emergence, Postemergence, scale 0 to 100
[8] = pre-emergence, Preemergence, read-out: Plant response rating, Blackgrass
[9] = post-emergence, Postemergence, read-out: Plant response rating (0 to 100), Morningglory
[10] = pre-emergence, Preemergence, read-out: Plant response rating, Morningglory
[11] = post-emergence, Postemergence, read-out: Plant response rating (0 to 100), Pigweed
[12] = pre-emergence, Preemergence, read-out: Plant response rating, Pigweed
[13] = post-emergence, Postemergence, read-out: Plant response rating (0 to 100), Soybean
[14] = pre-emergence, Preemergence, read-out: Plant response rating, Soybean
[15] = post-emergence, Postemergence, read-out: Plant response rating (0 to 100), Lambsquarters
[16] = pre-emergence, Preemergence, read-out: Plant response rating, Lambsquarters

COCC(=O)n1cc(C(=O)c2ccccc2)c(-c2cc(Cl)cc(Cl)c2)n1 [Compound 16, 1-[4-benzoyl-3-(3,5-dichlorophenyl)-1H-pyrazol-1-yl]-2-methoxyethanone]
85%: pest or weed control at 62 g/ha [4, 11] | pest or weed control at 125 g/ha [4, 11] | pest or weed control at 62 g/ha [4, 12] | pest or weed control at 125 g/ha [4, 12]
0%: pest or weed control at 62 g/ha ([1]; post-emergence, Postemergence, read-out: Plant response rating (0 to 100), Blackgrass) | pest or weed control at 125 g/ha ([1]; post-emergence, Postemergence, scale 0 to 100, read-out: Plant response rating, Blackgrass) | pest or weed control at 250 g/ha [1, 7] | pest or weed control at 500 g/ha [1, 7] | pest or weed control at 62 g/ha [1, 8] | pest or weed control at 125 g/ha [1, 8] | pest or weed control at 250 g/ha ([1]; pre-emergence, Preemergence) | pest or weed control at 500 g/ha ([1]; pre-emergence, Preemergence) | pest or weed control at 62 g/ha [2, 9] | pest or weed control at 125 g/ha [2, 9] | pest or weed control at 250 g/ha [2, 7] | pest or weed control at 500 g/ha [2, 7] | pest or weed control at 62 g/ha [2, 10] | pest or weed control at 125 g/ha [2, 10] | pest or weed control at 250 g/ha ([2]; pre-emergence, Preemergence) | pest or weed control at 500 g/ha ([2]; pre-emergence, Preemergence) | plant injury at 62 g/ha ([3]; post-emergence, Postemergence, 62 g ai/ha) | plant injury at 125 g/ha ([3]; post-emergence, Postemergence, 125 g ai/ha) | Corn plant response rating (crop injury, 0 = no effect, 100 = complete kill) at 250 g/ha [3, 7] | Corn plant response rating (crop injury, 0 = no effect, 100 = complete kill) at 500 g/ha [3, 7] | Corn plant response rating (crop injury, 0 = no effect, 100 = complete kill) at 62 g/ha ([3]; pre-emergence, Preemergence, 62 g ai/ha) | Corn plant response rating (crop injury, 0 = no effect, 100 = complete kill) at 125 g/ha ([3]; pre-emergence, Preemergence, 125 g ai/ha) | Corn plant response rating (crop injury, 0 = no effect, 100 = complete kill) at 250 g/ha ([3]; pre-emergence, Preemergence) | Corn plant response rating (crop injury, 0 = no effect, 100 = complete kill) at 500 g/ha ([3]; pre-emergence, Preemergence) | plant injury at 62 g/ha [5, 13] | plant injury at 125 g/ha [5, 13] | plant injury at 250 g/ha [5, 7] | plant injury at 500 g/ha [5, 7] | plant injury at 62 g/ha [5, 14] | plant injury at 125 g/ha [5, 14] | plant injury at 250 g/ha ([5]; pre-emergence, Preemergence) | plant injury at 500 g/ha ([5]; pre-emergence, Preemergence)
100%: pest or weed control at 250 g/ha [4, 7] | pest or weed control at 500 g/ha [4, 7] | pest or weed control at 250 g/ha ([4]; pre-emergence, Preemergence) | pest or weed control at 500 g/ha ([4]; pre-emergence, Preemergence) | pest or weed control at 62 g/ha [6, 16] | pest or weed control at 125 g/ha [6, 16]
70%: pest or weed control at 62 g/ha [6, 15]
75%: pest or weed control at 125 g/ha [6, 15] | pest or weed control at 250 g/ha ([6]; post-emergence, Postemergence, 250 g ai/ha, scale 0 to 100) | pest or weed control at 500 g/ha ([6]; post-emergence, Postemergence, 500 g ai/ha, scale 0 to 100)
